Data from patent publication US20170152258A9, “Substituted Pyridopyrazines as Syk Inhibitors” (HUTCHISON MEDIPHARMA LIMITED, priority 2012, published 2017).

Key:
[1] = system: RBL-2H3 cells; test: IgE-induced Beta-hexosaminidase secretion in RBL-2H3 cells; format: cell-based; conditions: DNP-BSA stimulation
Method: For the determination of IgE-induced Beta-hexosaminidase secretion, RBL-2H3 cells (SIBS) are seeded in 96 well plates at 4×10^4 cells per well and incubated in MEM media with 15% FBS and Glutamine ([…]) for 4 hours and sensitized with 0.5 ug/ml of SPE-7 overnight. Cells are washed 3 times with Tyrode's buffer and incubated in the presence or absence of various concentrations of the testing compound for 20 min at 37° C., 5% CO2. Cells are stimulated by adding 10 uL of DNP-BSA solution (150 ng/mL) to each well and incubating for 45 minutes at 37° C., 5% CO2. Then, 45 μL of the supernatant is taken and incubated with 100 μL of 1 mM 4-Nitrophenyl N-acetyl-β-D-glucosaminide (Sigma, Cat. No. N9376), which is diluted in 0.05 M citrate buffer (pH 4.5), for 1.5 hr at 37° C. The reactions are quenched by adding 185 μL of 0.05 M sodium carbonate buffer (pH 10.0). Plates are read at 405 nm on Multiskan (MK 3).

[2] = molecular target: Syk kinase (Homo sapiens, UniProt P43405); test: SYK Enzymatic Assay (Z-LYTE Tyr 2 peptide); format: biochemical; conditions: 8 concentrations 1 μM down to 0.0003 μM
How it was run: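 Z-LYTE format using Tyr 2 peptide. After the 1 h room-temperature kinase reaction, development reagent was added for 1 h, then stop reagent. Fluorescence was read at 445 and 520 nm. Compounds were tested at 8 concentrations, 1 μM down to 0.0003 μM (1:3 dilutions).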

[3] = Rattus norvegicus, RBL-2H3, IgE-induced Beta-hexosaminidase secretion
[4] = IgE-induced Beta-hexosaminidase secretion

| Structure (SMILES) | IC50 [1, 3] | IC50 [2] | IC50 [1, 4] |
| --- | --- | --- | --- |
| NC(=O)N1CCO[C@H](COc2nc(-c3ccc(N4CCOCC4)cc3)cc3nccnc23)C1 [Compound 63] | 342 nM | 37 nM |  |
| N#CC1(c2ccc(-c3cc4nccnc4c(OC[C@@H]4CN(S(N)(=O)=O)CCO4)n3)cc2)CC1 [Compound 293] | 241 nM | 50 nM |  |
| CS(=O)(=O)N1CCN(c2ccc(-c3cc4nccnc4c(OC[C@@H]4CN(S(C)(=O)=O)CCO4)n3)cc2)CC1 [Compound 26] | 113 nM | 18 nM |  |
| CC(C)(O)C1CCN(c2ccc(-c3cc4nccnc4c(O[C@@H]4CCOC4)n3)cc2)CC1 [Compound 228] | 39 nM | 28 nM |  |
| CCN(CC)c1ccc(-c2cc3nccnc3c(OC[C@@H]3CN(S(C)(=O)=O)CCO3)n2)cc1 [Compound 119] | 34 nM | 16 nM |  |
| CNC(=O)N1CCO[C@H](COc2nc(-c3ccc(C(C)C)cc3)cc3nccnc23)C1 [Compound 176] | 67 nM | 59 nM |  |
| CNS(=O)(=O)N1CCO[C@H](COc2nc(-c3ccc(OC)c(OC)c3)cc3nccnc23)C1 [Compound 220] | 69 nM | 86 nM |  |
| CNC(=O)N1CCO[C@H](COc2nc(-c3ccc(OC)c(OC)c3)cc3nccnc23)C1 [Compound 143] | 244 nM | 80 nM |  |
| Cc1cc(-c2cc3nccnc3c(OC[C@@H]3CN(C(N)=O)CCO3)n2)ccc1N(C)C [Compound 163] | 53 nM | 36 nM |  |
| CN(C)c1ccc(-c2cc3nccnc3c(OC[C@@H]3CN(C(N)=O)CCO3)n2)cc1 [Compound 136] | 99 nM | 25 nM |  |
| CN1CCOC(COc2nc(-c3ccc(C4CCN(S(C)(=O)=O)CC4)cc3)cc3nccnc23)C1=O (stereo not drawn) [Compound 315] | 123 nM | 103 nM |  |
| CCC(O)(CC)c1ccc(-c2cc3nccnc3c(OC[C@@H]3CN(S(C)(=O)=O)CCO3)n2)cc1 [Compound 279] | 87 nM | 35 nM |  |
| CS(=O)(=O)N1CCO[C@H](COc2nc(-c3ccc(CN4CCOCC4)cc3)cc3nccnc23)C1 [Compound 258] | 187 nM | 81 nM |  |
| CS(=O)(=O)N1CCO[C@H](COc2nc(-c3ccc(N4CCC(F)(F)CC4)cc3)cc3nccnc23)C1 [Compound 20] | 66 nM | 41 nM |  |
| COC(C)(C)c1ccc(-c2cc3nccnc3c(OC[C@@H]3CN(C(C)=O)CCO3)n2)cc1 [Compound 269] | 88 nM | 91 nM |  |
| Cc1cc(-c2cc3nccnc3c(OC[C@@H]3CNC(=O)C3)n2)ccc1N(C)C [Compound 226] | 60 nM | 29 nM |  |
| CC(=O)N1CCO[C@H](COc2nc(-c3ccc(N(C)C)cc3)cc3nccnc23)C1 [Compound 67] | 89 nM | 52 nM |  |
| CNC(=O)N1CCO[C@H](COc2nc(-c3ccc(C(C)(C)O)cc3)cc3nccnc23)C1 [Compound 264] | 339 nM | 38 nM |  |
| CN(C)c1ccc(-c2cc3nccnc3c(OC[C@@H]3CN(S(=O)(=O)c4cccnc4)CCO3)n2)cc1 [Compound 92] | 72 nM | 76 nM |  |
| CC(C)(C#N)c1ccc(-c2cc3nccnc3c(OC[C@@H]3CN(S(C)(=O)=O)CCO3)n2)cc1 [Compound 212] | 30 nM | 17 nM |  |
| O=S(=O)(C1CC1)N1CCO[C@H](COc2nc(-c3ccc(N4CCOCC4)cc3)cc3nccnc23)C1 [Compound 83] | 92 nM | 74 nM |  |
| CN(C)c1ccc(-c2cc3nccnc3c(OC[C@@H]3CN(C(N)=O)CCO3)n2)cc1F [Compound 183] | 95 nM | 76 nM |  |
| CN(C)c1ccc(-c2cc3nccnc3c(OC[C@@H]3CN(C(=O)C(C)(F)F)CCO3)n2)cc1 [Compound 172] | 55 nM | 50 nM |  |
| CN(C)c1ccc(-c2cc3nccnc3c(OC[C@@H]3CN(S(C)(=O)=O)CCO3)n2)cc1 [Compound 94] | 22 nM | 15 nM | 40 nM |
| Cc1cc(-c2cc3nccnc3c(OC[C@@H]3CN(S(C)(=O)=O)CCO3)n2)ccc1N(C)C [Compound 134] | 15 nM | 3 nM |  |
| CN(C)c1ccc(-c2cc3nccnc3c(OC[C@@H]3CN(C(=O)C4CC4)CCO3)n2)cc1 [Compound 69] | 62 nM | 39 nM |  |
| CCC(O)(CC)c1ccc(-c2cc3nccnc3c(OC[C@@H]3CN(C(N)=O)CCO3)n2)cc1 [Compound 281] | 663 nM | 65 nM |  |

| Structure (SMILES) | IC50 [1, 3] | IC50 [2] | IC50 [1, 4] |
| --- | --- | --- | --- |
| CC(C)(O)c1ccc(-c2cc3nccnc3c(OC[C@@H]3CN(C(N)=O)CCO3)n2)cc1 [Compound 266] | 1090 nM | 44 nM |  |
| CC(C)(CO)c1ccc(-c2cc3nccnc3c(OC[C@@H]3CN(S(C)(=O)=O)CCO3)n2)cc1 [Compound 288] | 85 nM | 25 nM | 48 nM |
| NS(=O)(=O)N1CCO[C@H](COc2nc(-c3ccc(N4CCCCC4)cc3)cc3nccnc23)C1 [Compound 28] | 142 nM | 40 nM |  |
| CC1(C)OCc2cc(-c3cc4nccnc4c(OC[C@@H]4CN(C(N)=O)CCO4)n3)ccc21 [Compound 298] | 191 nM | 28 nM |  |
| CC(=O)N1CCO[C@H](COc2nc(-c3cc(C)c(N(C)C)c(C)c3)cc3nccnc23)C1 [Compound 161] | 108 nM | 151 nM |  |
| CC(C)(C#N)c1ccc(-c2cc3nccnc3c(OC[C@@H]3CN(C(N)=O)CCO3)n2)cc1 [Compound 252] | 381 nM | 31 nM |  |
| CNS(=O)(=O)N1CCOC(COc2nc(-c3ccc(C(C)(C)C#N)cc3)cc3nccnc23)C1 (stereo not drawn) [Compound 251] | 83 nM | 75 nM |  |
| CCS(=O)(=O)N1CCO[C@H](COc2nc(-c3ccc(N(C)C)cc3)cc3nccnc23)C1 [Compound 88] | 98 nM | 32 nM |  |
| COc1ccc(-c2cc3nccnc3c(OC[C@@H]3CN(S(N)(=O)=O)CCO3)n2)cc1OC [Compound 292, (S)-2-(((7-(3,4-dimethoxyphenyl)pyrido[3,4-b]pyrazin-5-yl)oxy)methyl)morpholine-4-sulfonamide] | 232 nM | 14 nM |  |
| CN(C)c1ccc(-c2cc3nccnc3c(OC[C@@H]3CNC(=O)C3)n2)cc1 [Compound 206, (S)-4-(((7-(4-(dimethylamino)phenyl)pyrido[3,4-b]pyrazin-5-yl)oxy)methyl)pyrrolidin-2-one] | 52 nM | 72 nM |  |
| CN(C)c1ccc(-c2cc3nccnc3c(OC[C@@H]3CN(S(C)(=O)=O)CCO3)n2)cc1F [Compound 53] | 37 nM | 32 nM |  |
| CC(=O)N1CCO[C@H](COc2nc(-c3ccc(C(C)(C)CN)cc3)cc3nccnc23)C1 [Compound 267] | 1260 nM | 477 nM |  |
| CS(=O)(=O)N1CCO[C@H](COc2nc(-c3ccc(N4CCOCC4)cc3)cc3nccnc23)C1 [Compound 12] | 21 nM | 24 nM |  |
| CN(C)c1ccc(-c2cc3nccnc3c(OC[C@@H]3CN(C(=O)CC#N)CCO3)n2)cc1 [Compound 76] | 88 nM | 40 nM |  |
| CC(=O)N1CCO[C@H](COc2nc(-c3ccc4c(c3)CCCN4C)cc3nccnc23)C1 [Compound 185] | 64 nM | 40 nM |  |
| CC1CN(c2ccc(-c3cc4nccnc4c(OC[C@@H]4CN(S(C)(=O)=O)CCO4)n3)cc2)CCO1 (stereo partly drawn) [Compound 18] | 62 nM | 23 nM |  |
| NS(=O)(=O)N1CCO[C@H](COc2nc(-c3ccc(N4CCOCC4)cc3)cc3nccnc23)C1 [Compound 62] | 97 nM | 24 nM |  |
| OCCN1CCC(c2ccc(-c3cc4nccnc4c(O[C@@H]4CCOC4)n3)cc2)CC1 [Compound 227] | 70 nM | 37 nM |  |
| NS(=O)(=O)N1CCO[C@H](COc2nc(-c3ccc(C4(O)CCC4)cc3)cc3nccnc23)C1 [Compound 312] | 873 nM | 69 nM |  |
| CCC(O)(CC)c1ccc(-c2cc3nccnc3c(OC[C@@H]3CN(C(C)=O)CCO3)n2)cc1 [Compound 270] | 185 nM | 179 nM |  |
| CNC(=O)N1CCO[C@H](COc2nc(-c3ccc(N(C)C)c(Cl)c3)cc3nccnc23)C1 [Compound 166] | 71 nM | 52 nM |  |
| CC(=O)N1CC(c2ccc(-c3cc4nccnc4c(OC[C@@H]4CN(C(N)=O)CCO4)n3)cc2)C1 [Cmpd 296] | > 3330 nM | 72 nM |  |
| CC(C)(C)c1ccc(-c2cc3nccnc3c(OC[C@@H]3CN(S(C)(=O)=O)CCO3)n2)cc1 [Compound 256] | 92 nM | 36 nM |  |
| CN(C)c1ccc(-c2cc3nccnc3c(OC[C@@H]3CN(C(=O)[C@H]4CCOC4)CCO3)n2)cc1 [Compound 95] | 49 nM | 31 nM | 71 nM |
| CC(=O)N1CCC(c2ccc(-c3cc4nccnc4c(OC[C@@H]4CN(C(C)=O)CCO4)n3)cc2)CC1 [Compound 54] | 257 nM | 73 nM |  |
| CC(=O)N1CC(C)(c2ccc(-c3cc4nccnc4c(OC[C@@H]4CN(S(C)(=O)=O)CCO4)n3)cc2)C1 [Compound 321] | 127 nM | 14 nM |  |
| CNC(=O)N1CCO[C@H](COc2nc(-c3ccc(N(C)C)c(C)c3)cc3nccnc23)C1 [Compound 164] | 82 nM | 66 nM |  |
